From US10597388B2, “Pyridazinone herbicides” (FMC CORPORATION, priority 2014, dated 2020)

Tests used:
Assay in all cases: Test A greenhouse herbicide test, pre- and postemergence
Format in all cases: in vivo
[1] = system: corn (Zea mays); settings: Postemergence; for Corn plant response rating: 0 to 100 scale, 0 is no effect, 100 is complete control
How it was run: (§1)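 Visual injury ratings, 0 (no effect) to 100 (complete control), versus untreated plants after roughly 10 d in a greenhouse. Compounds, formulated in a surfactant-containing non-phytotoxic solvent, were sprayed on loam–sand soil after sowing (pre) or on one- to two-leaf plants 2–10 cm tall (post).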

[2] = system: foxtail, giant (giant foxtail, Setaria faberii)
How it was run: as §1

[3] = system: pigweed (Amaranthus retroflexus)
How it was run: as §1

[4] = system: ragweed (common ragweed, Ambrosia elatior)
How it was run: as §1

[5] = system: ryegrass, Italian (Italian ryegrass, Lolium multiflorum)
How it was run: as §1

[6] = system: wheat (Triticum aestivum); settings: Postemergence; for Wheat plant response rating: 0 to 100 scale, 0 is no effect, 100 is complete control
How it was run: as §1

[7] = 125 g ai/ha, 0 to 100 scale where 0 is no effect and 100 is complete control
[8] = 500 g ai/ha, visual rating after approx. 10 d, 0 to 100 scale (0 no effect, 100 complete control)
[9] = Postemergence, 125 g ai/ha, 0 to 100 scale where 0 is no effect and 100 is complete control
[10] = Postemergence, 500 g ai/ha, visual rating after approx. 10 d, 0 to 100 scale (0 no effect, 100 complete control)
[11] = Preemergence, 125 g ai/ha, 0 to 100 scale where 0 is no effect and 100 is complete control
[12] = Preemergence, 500 g ai/ha, 0 to 100 scale where 0 is no effect and 100 is complete control
[13] = Postemergence, 500 g ai/ha, 0 to 100 scale, 0 is no effect, 100 is complete control

Row | Structure (SMILES) | Plant response rating, Corn [1, 7] | Plant response rating, Corn [1, 8] | Plant response rating, Foxtail, Giant [2, 9] | Plant response rating, Foxtail, Giant [2, 10] | Foxtail, Giant plant response rating [2, 11] | Plant response rating, Foxtail, Giant [2, 12] | Plant response rating, Pigweed [3, 9] | Plant response rating, Pigweed [3, 10] | Pigweed plant response rating [3, 11] | Plant response rating, Pigweed [3, 12] | Plant response rating, Ragweed [4, 9] | Plant response rating, Ragweed [4, 10] | Ragweed plant response rating [4, 11] | Plant response rating, Ragweed [4, 12] | Plant response rating, Ryegrass, Italian [5, 9] | Plant response rating, Ryegrass, Italian [5, 10] | Ryegrass, Italian plant response rating [5, 11] | Plant response rating, Ryegrass, Italian [5, 12] | Plant response rating, Wheat [6, 7] | Plant response rating, Wheat [6, 8] | other results
1 | COC(=O)Oc1cnn(C)c(=O)c1-c1c(C)sc2ccccc12 [Compound 97] | 10 | 70 | 80 | 100 | 60 | 100 | 90 | 100 | 100 | 100 | 90 | 100 | 90 | 100 | 100 | 100 | 100 | 100 | 20 | 80 | 
2 | CCCC(=O)Oc1c(C)nn(C)c(=O)c1-c1c(CC)sc2ccc(C)cc12 [Compound 107] | 0 | 30 | 70 | 90 | 70 | 100 | 90 | 90 | 100 | 100 | 90 | 90 | 90 | 100 | 60 | 90 | 80 | 100 | 30 | 20 | 
3 | CC(=O)Oc1c(C)nn(C)c(=O)c1-c1c(C)sc2ccc(Cl)cc12 [Compound 108] | 0 | 0 | 60 | 90 | 90 | 100 | 90 | 100 | 100 | 100 | 70 | 100 | 90 | 100 | 100 | 100 | 100 | 100 | 0 | 20 | 
4 | COC(=O)Oc1c(C)nn(C)c(=O)c1-c1c(C)sc2ccc(C)cc12 [Compound 80] | 0 |  | 80 |  | 80 | 90 | 90 |  | 90 | 100 | 80 |  | 80 | 90 | 80 |  | 90 | 100 | 0 |  | Corn plant response rating ([1]; 500 g ai/ha): 0; Foxtail, Giant plant response rating [2, 13]: 80; Pigweed plant response rating [3, 13]: 90; Ragweed plant response rating [4, 13]: 90; Ryegrass, Italian plant response rating [5, 13]: 90; Wheat plant response rating ([6]; 500 g ai/ha): 0
5 | CCC(=O)Oc1c(C)nn(C)c(=O)c1-c1c(C)ccc2ccccc12 [Compound 78] | 0 |  | 20 |  | 20 | 60 | 60 |  | 60 | 100 | 40 |  | 60 | 90 | 80 |  | 100 | 100 | 0 |  | Corn plant response rating ([1]; 500 g ai/ha): 0; Foxtail, Giant plant response rating [2, 13]: 70; Pigweed plant response rating [3, 13]: 90; Ragweed plant response rating [4, 13]: 80; Ryegrass, Italian plant response rating [5, 13]: 100; Wheat plant response rating ([6]; 500 g ai/ha): 60
6 | CCCC(=O)Oc1c(C)nn(C)c(=O)c1-c1c(C)sc2ccc(C)cc12 [Compound 105] | 0 | 30 | 70 | 90 | 90 | 100 | 90 | 90 | 100 | 100 | 90 | 100 | 100 | 100 | 100 | 100 | 100 | 100 | 0 | 20 | 
